Assay results published in patent US20110166191A1, “3-(2-amino-ethyl)-5-(3-cyclohexyl-propylidene)-thiazolidine-2,4-dione and its derivatives as multiple signaling pathway inhibitors and for the treatment of cancer” (priority 2010, published 2011).

Key:
[1] = system: p-MEK; experiment: Western blot analysis of p-MEK in U937 cells; type: cell-based; details: PMA/TPA 200 nM stimulation
Procedure: FIG. 1. U937 cells were treated with Formula II prepared as described in Example 4 [i.e. 3-(2-aminoethyl)-5-(3-cyclohexylpropylidene)thiazolidine-2,4-dione] for 1 h, then stimulated with PMA (200 nM) for 30 min. Lysates were analyzed for p-Akt, p-MEK, p-ERK and α-tubulin by western blot analysis.
Cells (5×10^5 per ml) were treated with various concentrations of test compound at 37° C. (5% CO2) for 3 hrs, then stimulated with TPA at a final concentration of 200 nM for 20 min. Samples from whole-cell pellets were prepared and 30 μg protein for each condition was subjected to SDS-PAGE, transferred onto a PVDF membrane, and blocked with 5% fat-free milk for 30 min. The membrane is probed with primary antibodies overnight at 4° C. followed by incubation with horseradish peroxidase-labeled anti-mouse IgG (1:5000, BD Biosciecne). The immunoreactive bands are detected by chemiluminescence methods (Pierce) and visualized on Kodak Omat film. The following primary antibodies were used: phospho-p44/42 MAPK (ERK1/2, Thr202/Tyr204), p44/42 MAPK, phospho-p90RSK (Thr359/Ser363), RSK1/RSK2/RSK3 (Cell Signaling). Blots were reprobed with antibodies against α-tubulin to ensure equal loading and transfer of proteins.

[2] = system: DU145; experiment: Cell viability assay; type: cell-based; details: Homo sapiens, DU-145, DU145 cells, 24 hrs, read-out: Inhibition of cancer cell proliferation IC50
Procedure: (§1) Cells were cultured at a density of 5×10^4 (U937) or 1×10^4 (PC-3, DU145, M12, HT29) cells per well in flat bottomed 96-well plates and treated with various concentrations of test compound at 37° C. (5% CO2). After 24 h, 20 μL of CellTiter 96® Aqueous One Solution Reagent (Promega, Madison, Wis.) was added to each well according to the manufacturer's instructions. After 1 hour, the cell viability was determined by measuring the absorbance at 490 nm using a micro-plate reader.

[3] = system: M12; experiment: Cell viability assay; type: cell-based; details: M12 cells, 24 hrs, read-out: Inhibition of cancer cell proliferation IC50
Procedure: as §1

[4] = system: PC-3; experiment: Cell viability assay; type: cell-based; details: Homo sapiens, PC-3 cells, 24 hrs, read-out: Inhibition of cancer cell proliferation IC50
Procedure: as §1

[5] = system: U937; experiment: Cell viability assay; type: cell-based; details: Homo sapiens, U-937, U937 cells, 24 hrs, read-out: Inhibition of cancer cell proliferation IC50
Procedure: as §1

[6] = Toxicity studies in mice; type: in vivo; details: B6C3F1 mice, 20 mg/kg orally, 21 days
Procedure: Female B6C3F1 mice (12/group) were given example 4 orally at 30 mg/kg, 50 mg/kg and 80 mg/kg dosage or example 820 mg/kg orally for 21 days.

IC50 [2] | IC50 [4] | IC50 [5] | SMILES | p-MEK level (western blot) [1] | IC50 [3] | effects on general health and body weight [6]
 |  |  | O=C(NOCC1CC1)c1ccc(F)c(F)c1Nc1ccc(I)cc1Cl [PD184352, reference compound] | dose-dependent increase in the p-MEK levels |  | 
30.8 µM | 14.6 µM | 12.2 µM | NCCN1C(=O)S/C(=C\CCc2ccccc2)C1=O [Example 8, 3-(2-aminoethyl)-5-(3-phenylpropylidene)thiazolidine-2,4-dione] |  | 14.8 µM | no effects on general health and body weight were observed
